Measured values taken from patent US7071165B2, “LHRH antagonist peptides” (Indiana University Research and Technology Corporation, priority 1995, dated 2006).
Where a name gives a salt, the structure may show the parent alone. Starred links: 1 amine or outer side, 2 acyl side, 3 side chain; linkers in the order of their positions; H or OH if unused. Non-standard residues stand in square brackets, D forms with d. Residues, ends and D or L forms follow the SMILES beside them. *: point of attachment. X2 = O=C([C@@H](Cc1ccc[n+](Cc2ccccc2)c1)N[*:1])[*:2]; dPhe(4-Cl) = N[C@H](Cc1ccc(Cl)cc1)C(=O)O; X3 = C[S+](C)CC[C@@H](N[*:1])C(=O)[*:2]; X4 = C[S+](C)CC[C@H](N[*:1])C(=O)[*:2]; d2Nal = N[C@H](Cc1ccc2ccccc2c1)C(=O)O; Lys(iPr) = CC(C)NCCCC[C@H](N)C(=O)O; NMeY = CN[C@@H](Cc1ccc(O)cc1)C(=O)O; d3Pal = N[C@H](Cc1cccnc1)C(=O)O; NHCH2CH2SO3H = O=S(=O)(O)CCN*; X1 = O=C(c1ccc[n+]([O-])c1)*; Sar = CNCC(=O)O

Tests used:
rat mast cells = experiment: Histamine release assay, rat mast cells
Experimental: The term “histamine-releasing activity”, as used herein, refers to the tendency of a compound to release histamine when administered to a subject. The histamine-releasing activity of a compound can be measured with an in vitro assay (described in more detail, infra). […] Histamine-releasing activity was assayed by the method described in U.S. Pat. No. 4,851,385 to Roeske. Briefly, a suspension of rat mast cells was added to increasing concentrations of an LHRH antagonist peptide and incubated for 15 minutes at 37° C. The buffer contained 25 mM PIPES, pH 7.4, NaCl (119 mM), KCl (5 mM), NaOH (40 mM) glucose (5.6 mM), CaCl2 (1 mM) and 0.1% bovine serum albumin.

ovulation in female rats [1] = experiment: Anti-ovulatory activity (AOA) in vivo assay in rats; parameters: species or system rat; conditions: for AO activity (AOA), in words: rat, in vivo
Experimental: As used herein, “LHRH antagonist peptide” is intended to include peptides and peptide analogs which inhibit LHRH activity (i.e., has “LHRH antagonist activity”) in vivo or in vitro. Candidate LHRH antagonist peptides can be assayed, for example, in the animal model described in Corbin and Beattie, Endocrine Res. Commun. 2:1 (1975) (and see infra). In this assay, the LHRH antagonistic activity of a candidate compound is assayed by measuring the antiovulatory activity (AOA) of the compound in rats.
Anti-ovulatory activity (AOA) was measured by an in vivo assay in rats, as described in Corbin and Beattie, Endocrine Res. Commun. 2:1 (1975). In brief, female rats are injected with a candidate LHRH antagonist on the day of proestrus; in general, the candidate LHRH antagonist was dissolved in 0.1% DMSO. The ability of the candidate peptide to inhibit ovulation is measured by determining the number of rats which ovulate. A candidate peptide is considered to have LHRH antagonist qualities if it inhibits ovulation in at least 50% of the treated rats at a dose of 5 μg per rat. Preferred LHRH antagonists inhibit ovulation in at least 50% of rats at a dose of 2 μg per rat, more preferably at a dose of […], and still more preferably at a dose of 0.5 μg per rat.

ovulation in female rats [2] = experiment: as above; conditions: dose 0.5 μg per rat
[3] = rat mast cells, 15 minutes at 37° C.

Row | Compound | Histamine release ED50 (rat mast cells; [3]) [µg/mL] | Histamine-releasing activity, in words (rat mast cells) | AO activity (AOA): rats which ovulate / rats treated (ovulation in female rats [1]; dose 1 μg per rat) | also measured
1 | Ac-D-Nal^1, 4-Cl-D-Phe^2, D-Pal^3, D-Cit^6-Lys(iPr)^8, ProNHEt^9-des-Gly^10-LHRH.TFA [Compound 3365] | 24 | – | – | –
2 | CC(=O)N[C@H](Cc1ccc2ccccc2c1)C(=O)N[C@H](Cc1ccc(Cl)cc1)C(=O)N[C@H](Cc1cccnc1)C(=O)N[C@@H](CO)C(=O)N(C)[C@@H](Cc1ccc(O)cc1)C(=O)N[C@H](CCCCNC(=O)c1ccc[n+]([O-])c1)C(=O)N[C@@H](CC(C)C)C(=O)N[C@@H](CCCCNC(C)C)C(=O)N1CCC[C@H]1C(=O)N[C@H](C)C(N)=O [Compound 3828, Ac-D-Nal^1,4-Cl-D-Phe^2, D-Pal^3, N-Me-Tyr^5, D-Lys(Onic)^8, Lys(iPr)^8, D-Ala^10-LHRH.TFA] (Ac-[d2Nal][dPhe(4-Cl)][d3Pal]S[NMeY][dK](X1)L[Lys(iPr)]P[dA]-NH2) | – | low histamine releasing activity | – | –
3 | Ac-D-Nal^1, 4-Cl-D-Phe^2, D-Pal^3, His^5D-Pal(iPr)^6, Lys(iPr)^8, D-Ala^10-LHRH.2TFA [Compound 3982] | – | – | 8/8@1.00 | Histamine release ED50 (rat mast cells; footnote c: run with Nal arg reference 0.28): 53 µg/mL; Histamine release ED50 (rat mast cells; footnote d: run with Nal arg reference 0.11): 33 µg/mL
4 | CC(=O)N[C@H](Cc1ccc2ccccc2c1)C(=O)N[C@H](Cc1ccc(Cl)cc1)C(=O)N[C@H](Cc1cccnc1)C(=O)N[C@@H](CO)C(=O)N[C@@H](Cc1ccc(O)cc1)C(=O)N[C@@H](C(=O)N[C@@H](CC(C)C)C(=O)N[C@@H](CCCCNC(C)C)C(=O)N1CCC[C@H]1C(=O)N[C@H](C)C(N)=O)[C@H](C)O [Compound 3343, Ac-D-Nal^1,4-Cl-D-Phe^2, D-Pal^3, D-Thr^6-Lys(iPr)^8, D-Ala^10-LHRH.TFA] (Ac-[d2Nal][dPhe(4-Cl)][d3Pal]SY[dT]L[Lys(iPr)]P[dA]-NH2) | – | very low histamine release | – | –
5 | Ac-D-Nal^1, 4-Cl-D-Phe^2, D-Pal^3, D-Cit^6-Lys(iPr)^8, Pip^9-D-Ala^10-LHRH.TFA [Compound 3344] | 32 | – | 9/10@1 μg | –
6 | Ac-D-(or L)-Ada-Ala^1, 4-Cl-D-Phe^2, D-Pal^3, D-Cit^6-Lys(iPr)^8, D-Ala^10-LHRH.TFA [Compound 3368] | 34 | – | – | AO activity (AOA): rats which ovulate / rats treated (ovulation in female rats [1]; dose 5 μg per rat): 5/8@5 μg
7 | CC(=O)N[C@H](Cc1ccc2ccccc2c1)C(=O)N[C@H](Cc1ccc(Cl)cc1)C(=O)N[C@H](Cc1c[nH]c2ccccc12)C(=O)N[C@@H](CO)C(=O)N[C@@H](Cc1ccc(O)cc1)C(=O)N[C@H](CC[S+](C)C)C(=O)N[C@@H](CC(C)C)C(=O)N[C@@H](CC[S+](C)C)C(=O)N1CCC[C@H]1C(=O)N[C@H](C)C(N)=O [Compound 3925, Ac-D-Nal^1,4-Cl-D-Phe^2, D-Trp^3, D-Met(S^+Me)^6, Met(S^+Me)^8, D-Ala^10-LHRH.2TFA] (Ac-[d2Nal][dPhe(4-Cl)][dW]SY[X3]L[X4]P[dA]-NH2) | – | low histamine release | – | –
8 | Ac-D-Nal^1, 4-Cl-D-Phe^2, D-Pal^3, D-Lys(Imdac)^6, Lys(iPr)^8, D-Ala^10-LHRH.TFA [Compound 3741] | – | – | 1/8@1.0 | AO activity (AOA), in words (ovulation in female rats [1]): good AO activity; AO activity (AOA): rats which ovulate / rats treated (ovulation in female rats [2]): 6/8@0.5
9 | CC(=O)N[C@H](Cc1ccc2ccccc2c1)C(=O)N[C@H](Cc1ccc(Cl)cc1)C(=O)N[C@H](Cc1cccnc1)C(=O)N[C@@H](CO)C(=O)N[C@@H](Cc1ccc(O)cc1)C(=O)N[C@H](CC(N)=O)C(=O)N[C@@H](CC(C)C)C(=O)N[C@@H](CCCCNC(C)C)C(=O)N1CCC[C@H]1C(=O)N[C@H](C)C(N)=O [Compound 3342, Ac-D-Nal^1,4-Cl-D-Phe^2, D-Pal^3, D-Asn^6-Lys(iPr)^8, D-Ala^10-LHRH.TFA] (Ac-[d2Nal][dPhe(4-Cl)][d3Pal]SY[dN]L[Lys(iPr)]P[dA]-NH2) | – | very low histamine release | – | –
10 | CC(=O)N(C)CC(=O)N[C@H](Cc1ccc(Cl)cc1)C(=O)N[C@H](Cc1ccc2ccccc2c1)C(=O)N[C@@H](CO)C(=O)N[C@@H](Cc1ccc(O)cc1)C(=O)N[C@H](Cc1ccc[n+](Cc2ccccc2)c1)C(=O)N[C@@H](CC(C)C)C(=O)N[C@@H](CCCCNC(C)C)C(=O)N1CCC[C@H]1C(=O)N[C@H](C)C(N)=O [Compound 3763, Ac-Sar^1,4-Cl-D-Phe^2, D-Nal^3, D-Pal(Bzl)^6, Lys(iPr)^8, D-Ala^10-LHRH.2TFA] (Ac-[Sar][dPhe(4-Cl)][d2Nal]SY[X2]L[Lys(iPr)]P[dA]-NH2) | – | very little histamine-releasing activity | – | –
11 | CC(=O)N[C@H](Cc1ccc2ccccc2c1)C(=O)N[C@H](Cc1ccc(Cl)cc1)C(=O)N[C@H](Cc1cccnc1)C(=O)N[C@@H](CO)C(=O)N[C@@H](Cc1ccc(O)cc1)C(=O)N[C@H](CCC(N)=O)C(=O)N[C@@H](CC(C)C)C(=O)N[C@@H](CCCCNC(C)C)C(=O)N1CCC[C@H]1C(=O)N[C@H](C)C(N)=O [Compound 3341, Ac-D-Nal^1,4-Cl-D-Phe^2, D-Pal^3, D-Gln^6-Lys(iPr)^8, D-Ala^10-LHRH.TFA] (Ac-[d2Nal][dPhe(4-Cl)][d3Pal]SY[dQ]L[Lys(iPr)]P[dA]-NH2) | – | very low histamine release | – | –
12 | Ac-D-Nal^1, 4-Cl-D-Phe^2, D-Pal^3, D-Cit^6-Lys(iPr)^8, Pip^9-LHRH.TFA [Compound 3363] | 25 | – | 6/8@1 μg | –
13 | Ac-D-Nal^1, 4-Cl-D-Phe^2, D-Pal^3, D-Lys(OTac)^6, Lys(iPr)^8, D-Ala^10-LHRH.TFA [Compound 3508] | – | – | 0/8@1 μg | AO activity (AOA): rats which ovulate / rats treated (ovulation in female rats [2]): 6/8@0.5 μg
14 | Ac-D-Nal^1, 4-Cl-D-Phe^2, D-Pal^3, D-Phe(4-NO2)^6-Lys(iPr)^8, D-Ala^10-LHRH.TFA [Compound 3364] | 14 | – | 6/8@1 μg | –
15 | Ac-D-Nal^1, 4-Cl-D-Phe^2, D-Trp^3, D-Met(S^+Me)^6, D-Ala^10-LHRH.2TFA [Compound 3879] | – | – | 0/8@1.0 | AO activity (AOA), in words (ovulation in female rats [1]): high AOA; AO activity (AOA): rats which ovulate / rats treated (ovulation in female rats [2]): 6/8@0.5
16 | Ac-D-Nal^1, 4-Cl-D-Phe^2, D-Pal^3, D-Lys(Ppic)^6, Lys(iPr)^8, D-Ala^10-LHRH.TFA [Compound 3760] | – | – | 1/8@1.0 | AO activity (AOA), in words (ovulation in female rats [1]): good AO activity; AO activity (AOA): rats which ovulate / rats treated (ovulation in female rats [2]): 7/8@0.5
17 | Ac-D-Nal^1, 4-Cl-D-Phe^2, D-Trp^3, D-Arg^6, Met(S^+Me)^8, D-Ala^10-LHRH.2TFA [Compound 3878] | – | – | 2.8@1.0 | AO activity (AOA): rats which ovulate / rats treated (ovulation in female rats [2]): 7/8@0.5
18 | Ac-L-(or D)-Ada-Ala^1, 4-Cl-D-Phe^2, D-Pal^3, D-Cit^6-Lys(iPr)^8, D-Ala^10-LHRH.TFA [Compound 3369] | 93 | low histamine release | – | AO activity (AOA): rats which ovulate / rats treated (ovulation in female rats [1]; dose 5 μg per rat): 7/8@5 μg
19 | Ac-D-Nal^1, 4-Cl-D-Phe^2, D-Pal^3, Pal^5, D-Pal(iPr)^6, Lys(iPr)^8, D-Ala^10-LHRH.TFA [Compound 3430] | 10 | – | 3/8@1 μg | –
20 | Ac-D-Nal^1, 4-Cl-D-Phe^2, D-Pal^3, D-Lys(iPrPic)^6, Lys(iPr)^8, D-Ala^10-LHRH.TFA [Compound 3438] | 5.6 | – | 2/8@1 μg | –
21 | CC(=O)N[C@H](Cc1ccc2ccccc2c1)C(=O)N[C@H](Cc1ccc(Cl)cc1)C(=O)N[C@H](Cc1cccnc1)C(=O)N[C@@H](CO)C(=O)N[C@@H](Cc1ccc(O)cc1)C(=O)N[C@H](CCC(=O)NCCS(=O)(=O)O)C(=O)N[C@@H](CC(C)C)C(=O)N[C@@H](CCCCNC(C)C)C(=O)N1CCC[C@H]1C(=O)N[C@H](C)C(N)=O [Compound 3361, Ac-D-Nal^1,4-Cl-D-Phe^2, D-Pal^3, D-Glu(Taurine)^6-Lys(iPr)^8, D-Ala^10-LHRH.TFA] (Ac-[d2Nal][dPhe(4-Cl)][d3Pal]SY[dE](NHCH2CH2SO3H)L[Lys(iPr)]P[dA]-NH2) | – | very low histamine release | – | –
22 | Ac-D-Nal^1, 4-Cl-D-Phe^2, D-Pal^3, D-Cit^6-Lys(iPr)^8-LHRH.TFA [Compound 3362] | 22 | – | 4/8@1 μg | –
